Source: patent US5156955A, “Nucleoside oxidase and assay method utilizing same” (priority 1988, dated 1992)
Like-named read-outs stand apart in the source and are kept apart here.

Tests used:
[1] = system: nucleoside oxidase YT-1; settings: for Amount of oxygen consumption / Amount of p-quinone formed: 0.06 μM inosine
[2] = system: nucleoside oxidase YT-1; test: Specificity test on laccase substrate (laccase-like activity in presence of inosine); assay type: biochemical, Pseudomonas maltophilia LB-86; settings: 1 mM laccase substrate, 7 mM inosine, one unit enzyme, 5 minutes
Description: The present enzyme was tested for the substrate specificity of its laccase-like activity in the presence of 7 mM inosine in the following manner. One unit of the present enzyme was added to a specimen containing 7 mM of inosine and 1 mM of the laccase substrate shown in Table 5, and the mixture was allowed to stand for 5 minutes. The absorption spectrum of the specimen was obtained before and after the addition of the enzyme.

[3] = system: nucleoside oxidase YT-1; test: Enzymatic activity test I: oxidation reaction products and stoichiometry; assay type: biochemical, Pseudomonas maltophilia LB-86
Description: During a reaction period of 0 to 800 minutes, the reaction muxture was partly collected at suitable time intervals and analyzed by high performance liquid chromatography (HPLC) with a column of Fine SIL C18 (product of Japan Spectroscopic Co., Ltd.) using as a solvent 50 mM phosphate buffer (pH 3.0)/methanol=95/5 at a flow rate of 1.5 ml/min. Absorption was detected at 260 nm.
The amount of oxygen consumption was determined by an oxygen electrode, the amount of P-2 produced from the peak area of HPLC, and the amount of hydrogen peroxide by the phenol-4-aminoantipyrine peroxidase method and the ferrithiocyanide method (Ronald Thurman et al., Eur. J. Biochem., 25, 420-430 (1972)).

[4] = system: nucleoside oxidase YT-1; test: Km value; assay type: biochemical, Pseudomonas maltophilia LB-86; settings: read-out: apparent Km value
Description: (§1) The consumption of 1 μM of oxygen per minute is taken as 1 unit (U).

[5] = system: nucleoside oxidase YT-1; test: Substrate specificity test (nucleoside oxidase activity, oxygen consumption); assay type: biochemical, Pseudomonas maltophilia LB-86
Description: as §1

[6] = 0.02 μM 1,4-hydroquinone, 1 U enzyme, pH 7.0
[7] = 0.06 μM 1,4-hydroquinone, 1 U enzyme, pH 7.0
[8] = 0.60 μM 1,4-hydroquinone, 1 U enzyme, pH 7.0

Structure (SMILES) | Amount of oxygen consumption [1, 6] [µM] | Amount of p-quinone formed [1, 6] [µM] | Amount of oxygen consumption [1, 7] [µM] | Amount of p-quinone formed [1, 7] [µM] | oxygen used for oxidizing 1,4-hydroquinone ([1]; 0.115 μM minus 0.06 μM used for inosine, 0.12 μM 1,4-hydroquinone) [µM] | Amount of p-quinone formed ([1]; 0.12 μM 1,4-hydroquinone, 1 U enzyme, pH 7.0) [µM] | Amount of oxygen consumption ([1]; 0.12 μM 1,4-hydroquinone, 1 U enzyme, pH 7.0 (Table 3)) [µM] | Amount of oxygen consumption ([1]; 0.12 μM 1,4-hydroquinone, room temperature, 10 minutes (stoichiometry test)) [µM] | Amount of oxygen consumption [1, 8] [µM] | Amount of p-quinone formed [1, 8] [µM] | laccase reaction without nucleoside ([1]; enzyme mixed with laccase substrate, no nucleoside present) | Change in absorption spectrum due to reaction [2] | hydrogen peroxide formed ([3]; 50 nanomoles of inosine as substrate) | oxygen consumption ([3]; 50 nanomoles of inosine, one U enzyme, 1 ml 100 mM phosphate buffer) [nmol] | P-2 produced ([3]; from 50 nanomoles of inosine, one U enzyme) [nmol] | Km [4] [µM] | Substrate specificity (enzyme active / not active on substance) ([5]; statement in words) | Relative activity ([5]; substrate 10 mM, relative to activity on inosine taken as 100) [%]
Oc1ccc(O)cc1 [1,4-Hydroquinone] | 0.069 | 0.019 | 0.089 | 0.060 | 0.055 | 0.115 | 0.112 | 0.115 | 0.115 | 0.119 | no reaction occurs | New peak at 243 nm | – | – | – | – | – | –
OC[C@H]1O[C@@H](n2cnc3c(O)ncnc32)[C@H](O)[C@@H]1O [Inosine] | – | – | – | – | – | – | – | – | – | – | – | – | No hydrogen peroxide was detected | 51 | 47 | 44 | Active | 100
